Data from US20240116877A1, “KIT KINASE INHIBITORS AND METHODS OF USE THEREOF” (Deciphera Pharmaceuticals, LLC, priority 2021, published 2024).
Where two headings read alike, the source gives them in different places.

What was measured:
Ba/F3 KIT mutant cells = assay: Ba/F3 mutant KIT Cell Proliferation Assays (resazurin); type: cell-based; settings: Mus musculus, BaF3
Outline: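 IC50 values come from resazurin fluorescence (ex 540, em 600) after 5 h dye exposure, added as a 440 μM solution. Cells were IL-3-independent Ba/F3 expressing mutant KIT from a lentiviral vector, puromycin-selected.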

c-KIT kinase (uKIT) = c-KIT kinase (uKIT) (Homo sapiens (Human), UniProt P10721); assay: Biochemical Assay for uKIT (coupled pyruvate kinase/lactate dehydrogenase assay); settings: Inhibition of biochemical activity of uKIT kinase; 1 mM ATP
Sequence of c-KIT kinase (uKIT) (P10721 other isoform, or with tags, fused parts or gaps): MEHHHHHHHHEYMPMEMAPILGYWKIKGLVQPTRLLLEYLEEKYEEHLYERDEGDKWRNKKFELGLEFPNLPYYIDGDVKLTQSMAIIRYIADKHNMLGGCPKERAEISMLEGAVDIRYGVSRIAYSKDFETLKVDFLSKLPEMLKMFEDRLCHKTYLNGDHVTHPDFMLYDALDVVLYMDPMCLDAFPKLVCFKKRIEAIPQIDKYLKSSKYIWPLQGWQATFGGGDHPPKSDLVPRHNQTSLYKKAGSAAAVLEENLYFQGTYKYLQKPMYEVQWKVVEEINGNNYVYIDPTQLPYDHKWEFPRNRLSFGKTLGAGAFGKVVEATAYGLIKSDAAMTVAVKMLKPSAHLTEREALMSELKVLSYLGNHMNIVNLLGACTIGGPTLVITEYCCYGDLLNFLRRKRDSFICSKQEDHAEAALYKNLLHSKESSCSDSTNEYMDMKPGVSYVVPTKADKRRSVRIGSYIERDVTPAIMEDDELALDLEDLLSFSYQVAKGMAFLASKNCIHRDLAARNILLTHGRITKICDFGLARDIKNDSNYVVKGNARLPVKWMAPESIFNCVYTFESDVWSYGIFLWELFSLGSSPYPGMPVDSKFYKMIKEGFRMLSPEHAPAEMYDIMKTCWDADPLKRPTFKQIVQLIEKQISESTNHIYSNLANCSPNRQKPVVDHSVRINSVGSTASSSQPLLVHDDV
Outline: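 Continuous coupled PK/LDH assay following NADH oxidation at 340 nm for 6 h at 30° C, with 16 nM or 4.36 nM KIT (two constructs), 0.7 mg/mL PE4Y, 1 mM ATP, pH 7.5. Rates from the 2-3 h window converted to percent inhibition versus controls; IC50 fitted.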

GIST 430 cells = assay: GIST 430 Cell Proliferation Assay (resazurin); type: cell-based; settings: Homo sapiens; GIST430 cell proliferation
Outline: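 Five thousand cells per well were exposed to serially diluted compound in complete growth medium for 115 h at 37 degrees Celsius, 5% CO2. Resazurin was then added for a further 5 h, fluorescence read at 540 nm excitation/600 nm emission, and IC50 values calculated.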

[1] = Ba/F3 KIT AYdup-V654A mutant cell proliferation, read-out: AYdup-V654A IC50
[2] = Ba/F3 KIT exon11del-V654A mutant cell proliferation, read-out: exon11del-V654A IC50
[3] = Ba/F3 KIT exon11del-Y823D mutant cell proliferation, read-out: exon11del-Y823D IC50
[4] = Ba/F3 KIT AYdup mutant cell proliferation, read-out: AYdup IC50
[5] = Ba/F3 KIT AYdup-D816G mutant cell proliferation, read-out: AYdup-D816G IC50

COCCOc1cc(F)c2c(Nc3ccc(NC(=O)CC(=O)N4CCCCC4(C)C)cc3)ncnc2c1 [Example 142]
IC50 (Ba/F3 KIT mutant cells; [1]): 10 to 100 nM
IC50 (Ba/F3 KIT mutant cells; [2]): 10 to 100 nM
IC50 (Ba/F3 KIT mutant cells; [3]): 10 to 100 nM
IC50 (c-KIT kinase (uKIT)): 10 to 100 nM
IC50 (GIST 430 cells): 10 to 100 nM

COCCOc1cc(F)c2c(Nc3ccc(NC(=O)CC(=O)N(C)C(C)(C)C)cc3)ncnc2c1 [Example 143]
IC50 (Ba/F3 KIT mutant cells; [4]): ≤ 10 nM
IC50 (Ba/F3 KIT mutant cells; [5]): 10 to 100 nM
IC50 (Ba/F3 KIT mutant cells; [1]): 10 to 100 nM
IC50 (Ba/F3 KIT mutant cells; [2]): ≤ 10 nM
IC50 (Ba/F3 KIT mutant cells; [3]): 10 to 100 nM
IC50 (c-KIT kinase (uKIT)): 10 to 100 nM
IC50 (GIST 430 cells): ≤ 10 nM

COCCOc1cc(F)c2c(Nc3ccc(NC(=O)CC(=O)NC4(C)COC4)cc3)ncnc2c1 [Example 144]
IC50 (Ba/F3 KIT mutant cells; [1]): 100 to 1000 nM
IC50 (Ba/F3 KIT mutant cells; [2]): 100 to 1000 nM
IC50 (c-KIT kinase (uKIT)): 100 to 1000 nM
IC50 (GIST 430 cells): 100 to 1000 nM

CC(C)(C)CNC(=O)CC(=O)Nc1ccc(Nc2ncnc3cc(OCCN4CCOCC4)cc(F)c23)cc1 [Example 145]
IC50 (Ba/F3 KIT mutant cells; [4]): ≤ 10 nM
IC50 (Ba/F3 KIT mutant cells; [5]): 10 to 100 nM
IC50 (Ba/F3 KIT mutant cells; [1]): 10 to 100 nM
IC50 (Ba/F3 KIT mutant cells; [2]): ≤ 10 nM
IC50 (Ba/F3 KIT mutant cells; [3]): 10 to 100 nM
IC50 (c-KIT kinase (uKIT)): 10 to 100 nM
IC50 (GIST 430 cells): 10 to 100 nM

CCN(C(=O)CC(=O)Nc1ccc(Nc2ncnc3cc(OCCOC)cc(F)c23)cc1)C(C)C [Example 146]
IC50 (Ba/F3 KIT mutant cells; [1]): 100 to 1000 nM
IC50 (Ba/F3 KIT mutant cells; [2]): 10 to 100 nM
IC50 (c-KIT kinase (uKIT)): 100 to 1000 nM
IC50 (GIST 430 cells): 100 to 1000 nM

CNC(=O)COc1cc(F)c2c(Nc3ccc(NC(=O)NCCC(C)(C)F)cc3)ncnc2c1 [Example 147]
IC50 (Ba/F3 KIT mutant cells; [1]): 100 to 1000 nM
IC50 (Ba/F3 KIT mutant cells; [2]): 10 to 100 nM
IC50 (Ba/F3 KIT mutant cells; [3]): > 1000 nM
IC50 (c-KIT kinase (uKIT)): 10 to 100 nM
IC50 (GIST 430 cells): 100 to 1000 nM

CN(C)C(=O)COc1cc(F)c2c(Nc3ccc(NC(=O)NCCC(C)(C)F)cc3)ncnc2c1 [Example 148]
IC50 (Ba/F3 KIT mutant cells; [1]): 100 to 1000 nM
IC50 (Ba/F3 KIT mutant cells; [2]): 10 to 100 nM
IC50 (c-KIT kinase (uKIT)): 10 to 100 nM
IC50 (GIST 430 cells): 100 to 1000 nM

CC(C)(F)CCNC(=O)Nc1ccc(Nc2ncnc3cc(OC[C@@H]4CCOC4)cc(F)c23)cc1 [Example 149]
IC50 (Ba/F3 KIT mutant cells; [1]): 10 to 100 nM
IC50 (Ba/F3 KIT mutant cells; [2]): 10 to 100 nM
IC50 (Ba/F3 KIT mutant cells; [3]): 10 to 100 nM
IC50 (c-KIT kinase (uKIT)): ≤ 10 nM
IC50 (GIST 430 cells): 10 to 100 nM

CC(C)(F)CCNC(=O)Nc1ccc(Nc2ncnc3cc(OCCN4CCCC4)cc(F)c23)cc1 [Example 150]
IC50 (Ba/F3 KIT mutant cells; [4]): ≤ 10 nM
IC50 (Ba/F3 KIT mutant cells; [5]): 10 to 100 nM
IC50 (Ba/F3 KIT mutant cells; [1]): 10 to 100 nM
IC50 (Ba/F3 KIT mutant cells; [2]): 10 to 100 nM
IC50 (Ba/F3 KIT mutant cells; [3]): 100 to 1000 nM
IC50 (c-KIT kinase (uKIT)): ≤ 10 nM
IC50 (GIST 430 cells): 10 to 100 nM

CC(C)(F)CCNC(=O)Nc1ccc(Nc2ncnc3cc(OC[C@H]4CCOC4)cc(F)c23)cc1 [Example 151]
IC50 (Ba/F3 KIT mutant cells; [1]): 10 to 100 nM
IC50 (Ba/F3 KIT mutant cells; [2]): 10 to 100 nM
IC50 (Ba/F3 KIT mutant cells; [3]): 100 to 1000 nM
IC50 (c-KIT kinase (uKIT)): ≤ 10 nM
IC50 (GIST 430 cells): 10 to 100 nM

COCCOc1cc(F)c2c(Nc3ccc(NC(=O)CC(=O)N4CCC(C)(C)CC4)cc3)ncnc2c1 [Example 152]
IC50 (Ba/F3 KIT mutant cells; [1]): 10 to 100 nM
IC50 (Ba/F3 KIT mutant cells; [2]): 10 to 100 nM
IC50 (Ba/F3 KIT mutant cells; [3]): 100 to 1000 nM
IC50 (c-KIT kinase (uKIT)): 10 to 100 nM
IC50 (GIST 430 cells): 10 to 100 nM

COCCOc1cc(F)c2c(Nc3ccc(NC(=O)CC(=O)N4CCC(C(F)(F)F)C4)cc3)ncnc2c1 (centres unmarked) [Example 153]
IC50 (Ba/F3 KIT mutant cells; [1]): 10 to 100 nM
IC50 (Ba/F3 KIT mutant cells; [2]): 100 to 1000 nM
IC50 (Ba/F3 KIT mutant cells; [3]): 100 to 1000 nM
IC50 (c-KIT kinase (uKIT)): 10 to 100 nM
IC50 (GIST 430 cells): 10 to 100 nM

COCCOc1cc(F)c2c(Nc3ccc(NC(=O)CC(=O)N4CCOCC4(C)C)cc3)ncnc2c1 [Example 154]
IC50 (Ba/F3 KIT mutant cells; [1]): 100 to 1000 nM
IC50 (Ba/F3 KIT mutant cells; [2]): 100 to 1000 nM
IC50 (Ba/F3 KIT mutant cells; [3]): 100 to 1000 nM
IC50 (c-KIT kinase (uKIT)): 10 to 100 nM
IC50 (GIST 430 cells): 10 to 100 nM

COC[C@@H](C)Oc1cc(F)c2c(Nc3ccc(NC(=O)NCCC(C)(C)F)cc3)ncnc2c1 [Example 155]
IC50 (Ba/F3 KIT mutant cells; [1]): 10 to 100 nM
IC50 (Ba/F3 KIT mutant cells; [2]): 10 to 100 nM
IC50 (Ba/F3 KIT mutant cells; [3]): 100 to 1000 nM
IC50 (c-KIT kinase (uKIT)): ≤ 10 nM
IC50 (GIST 430 cells): 100 to 1000 nM

CO[C@H](C)COc1cc(F)c2c(Nc3ccc(NC(=O)NCCC(C)(C)F)cc3)ncnc2c1 [Example 156]
IC50 (Ba/F3 KIT mutant cells; [4]): ≤ 10 nM
IC50 (Ba/F3 KIT mutant cells; [5]): 10 to 100 nM
IC50 (Ba/F3 KIT mutant cells; [1]): 10 to 100 nM
IC50 (Ba/F3 KIT mutant cells; [2]): 10 to 100 nM
IC50 (Ba/F3 KIT mutant cells; [3]): 10 to 100 nM
IC50 (c-KIT kinase (uKIT)): ≤ 10 nM
IC50 (GIST 430 cells): 10 to 100 nM

COC[C@H](C)Oc1cc(F)c2c(Nc3ccc(NC(=O)NCCC(C)(C)F)cc3)ncnc2c1 [Example 157]
IC50 (Ba/F3 KIT mutant cells; [1]): 100 to 1000 nM
IC50 (Ba/F3 KIT mutant cells; [2]): 100 to 1000 nM
IC50 (Ba/F3 KIT mutant cells; [3]): 100 to 1000 nM
IC50 (c-KIT kinase (uKIT)): 10 to 100 nM
IC50 (GIST 430 cells): 100 to 1000 nM

CC(C)(F)CCNC(=O)Nc1ccc(Nc2ncnc3cc(OCCCN4CCCC4)cc(F)c23)cc1 [Example 158]
IC50 (Ba/F3 KIT mutant cells; [4]): ≤ 10 nM
IC50 (Ba/F3 KIT mutant cells; [5]): ≤ 10 nM
IC50 (Ba/F3 KIT mutant cells; [1]): ≤ 10 nM
IC50 (Ba/F3 KIT mutant cells; [2]): 10 to 100 nM
IC50 (Ba/F3 KIT mutant cells; [3]): 10 to 100 nM
IC50 (c-KIT kinase (uKIT)): ≤ 10 nM
IC50 (GIST 430 cells): 10 to 100 nM

CC(C)(F)CCNC(=O)Nc1ccc(Nc2ncnc3cc(OCCC4COC4)cc(F)c23)cc1 [Example 159]
IC50 (Ba/F3 KIT mutant cells; [1]): 10 to 100 nM
IC50 (Ba/F3 KIT mutant cells; [2]): 10 to 100 nM
IC50 (Ba/F3 KIT mutant cells; [3]): 10 to 100 nM
IC50 (c-KIT kinase (uKIT)): ≤ 10 nM
IC50 (GIST 430 cells): 10 to 100 nM

CC(C)(F)CCNC(=O)Nc1ccc(Nc2ncnc3cc(OC[C@H]4CCCO4)cc(F)c23)cc1 [Example 161]
IC50 (Ba/F3 KIT mutant cells; [4]): ≤ 10 nM
IC50 (Ba/F3 KIT mutant cells; [5]): 10 to 100 nM
IC50 (Ba/F3 KIT mutant cells; [1]): ≤ 10 nM
IC50 (Ba/F3 KIT mutant cells; [2]): 10 to 100 nM
IC50 (Ba/F3 KIT mutant cells; [3]): 10 to 100 nM
IC50 (c-KIT kinase (uKIT)): ≤ 10 nM
IC50 (GIST 430 cells): 10 to 100 nM
